Data as given in patent publication US12324841B2, “Methods of treating cancer with a combination of an anti-PD-1 antibody and an anti-tissue factor antibody-drug conjugate” (GENMAB A/S, priority 2018, dated 2025).

Tests used:
[1] = system: murine tumor cells that stably express human TF; experiment: Syngeneic tumor model: immunization with drug-killed human TF positive murine tumor cells, then tumor challenge; type: in vivo, Balb/c mice; conditions: mice immunized with tumor cells killed by 1-5 μg per ml tisotumab vedotin or 100 nM MMAE
Experimental: Mouse tumor cells are transfected with plasmid constructs encoding human tissue factor (TF) and sgRNA-guided Cas9 nuclease (sgRNA/Cas9) to generate a murine cell line that expresses the human TF. Fluorescence activated cell sorting (FACS) yields a clonal population of murine tumor cells that stably express human TF, these cells are then treated with 1 μg to 5 μg per ml of tisotumab vedotin or 100 nM of MMAE for 4 days. In order to prepare dying cells for immunization, treated murine tumor cells are overlaid atop Histopaque, and centrifuged at 2000 g for 30 minutes. Dead and dying cells are pelleted underneath the Histopaque layer, and viability assessed by trypan blue exclusion. A sample with approximately <20% live cells as measured by trypan blue exclusion is obtained. Flash-frozen tumor cells are prepared by submerging the cells in liquid nitrogen for 10 seconds, followed by immersion in 37° C. water until completely thawed. The liquid nitrogen freeze-thaw process is repeated 5 times. Dead and dying human TF positive tumor cells are resuspended in phosphate buffered saline (PBS) and 2×10^6 cells are injected into the peritoneum of immune-competent Balb/c mice. Seven days later, mice receive a second immunization with dead and dying cells prepared in the same manner.
Fourteen days after initial immunization with the dead and dying human TF positive tumor cells, mice are subcutaneously implanted with 5×10^6 wild-type tumor cells and monitored for tumor growth. […] As these effects occur in the absence of any administered therapeutic agent, the administration of cells killed by tisotumab vedotin or MMAE is sufficient to generate long-lasting protective immune memory against subsequent tumor cell challenge. Protective immune memory is amplified by treating these mice with tisotumab vedotin in combination with an antibody that binds to murine PD-1.

[2] = system: HPAFII (pancreatic carcinoma); experiment: Western blot analysis of ER stress induction in HPAFII cells; type: cell-based; conditions: 18 hours (legend: 16 hours)
Experimental: Induction of cell death and release of ICD danger signals occurs concomitant with initiation of an ER stress response. Two Tissue Factor positive cell lines, HPAFII (pancreatic carcinoma) and MDA-MB-231 (breast cell carcinoma) were exposed to tisotumab vedotin ADC, an Isotype-MMAE ADC (H00-MMAE, IgG1 MMAE), or free MMAE for 18 hours and induction of ER stress monitored by western blot analysis. Phosphorylation of inositol-requiring transmembrane kinase/endonuclease 1 (IRE1) was detected after treatment with tisotumab vedotin ADC or MMAE free drug (FIG. 6). […] The ability for auristatins to prime the immune system to recognize tumor antigens opens the door for a myriad of combinatorial therapeutic options.

T cells = experiment: T cell activation in CSFE labeled PBMCs fed killed MDA-MB-231 cells, with or without pembrolizumab; type: cell-based, human; conditions: 48 hours, without pembrolizumab
Experimental: FIG. 8A-8C is a series of graphs in which Tissue Factor positive MDA-MB-231 cells killed with various agents were fed to CSFE labeled human peripheral blood mononuclear cells (PBMCs) in the presence or absence of the PD1 targeting antibody pembrolizumab for 48 hours and T cells activation assessed by A) decreased CSFE fluorescent indicative of T cell proliferation and B) and C) cytokine production.
Induction of the innate immune response following exposure to cancer cells undergoing ICD sets up secondary T cell activation, which can be enhanced by concomitant pembrolizumab treatment.

For “tisotumab vedotin: antibody-drug conjugate comprising an antibody that binds to tissue factor (TF), a protease-cleavable linker, and the microtubule disrupting agent MMAE”, the “survival after challenge with wild-type tumor cells” value [1] was “increased survival”, the “tumor growth after challenge with wild-type tumor cells” value [1] was “delayed tumor growth” and the “ATF4 cleavage (PERK pathway)” value [2] was “upregulation of ATF4 cleavage”. For the same substance, the “phosphorylation of IRE1” value [2] was “detected”, the “phosphorylation of JNK” value [2] was “increased phosphorylation” and the “T cell proliferation (CSFE dilution)” value (T cells) was “drove T cell proliferation”. For the same substance, the “production of IFNγ” value (T cells) was “production of T cell specific cytokines such as IL12P70 and IFNγ” and the “production of IL12p70” value (T cells) was “production of T cell specific cytokines such as IL12P70 and IFNγ”.
